The results in this text go back to patent publication US10189845B2, “4,6-substituted-pyrazolo[1,5-a]pyrazines as janus kinase inhibitors” (ARRAY BIOPHARMA INC., priority 2014, dated 2019).

As a reminder, the IC50 is the concentration needed to halve the response being measured. A high value points to weaker potency.

What all share (assay type): biochemical
One assay addresses Human Tyk2 kinase domain (Homo sapiens (Human), UniProt P29597). Nature of the assay: Tyk2 Inhibition Assay (Example A, Omnia kinase fluorescence peptide substrate assay). Conditions: TYK2 Enzyme IC50 1 mM ATP, averaged IC50 ranges. In outline:
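Omnia Sox-peptide kinetic fluorescence assay (ex 360/em 485 nm, read every 50 s for 45 min) with 1 nM human Tyk2 kinase domain (aa 886–1187, His tag cleaved, baculovirus-expressed), 1 mM ATP, 8 μM Omnia Y12 peptide, in 25 mM HEPES pH 7.4, 10 mM MgCl2, 0.01% Triton X-100, 1 mM DTT, 2% DMSO. IC50 from 4-parameter logistic fit of percent of control.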

For the next assay, the target named is JAK1 (Homo sapiens (Human), UniProt P23458). The assay can be described thus: JAK1 Inhibition Assay (Example B, Omnia kinase fluorescence peptide substrate assay). The gist of the method: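 Recombinant human JAK1 (12.5 nM) with 1 mM ATP and 8 μM Omnia Y12 Sox-peptide in 25 mM HEPES pH 7.4, 10 mM MgCl2, 0.01% Triton X-100, 1 mM DTT, 2% DMSO final. Phosphorylation read kinetically (ex 360/em 485 nm, 45 min); IC50 from 4-parameter fit of percent of control.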

For the next assay, the target named is JAK2 (Homo sapiens (Human), UniProt O60674). The assay can be described thus: JAK2 Inhibition Assay (Example C, Omnia kinase fluorescence peptide substrate assay). The settings on record: JAK2 Enzyme IC50 1 mM ATP, averaged IC50 ranges. In outline:
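4 nM JAK2 with 1 mM ATP and 10 μM Omnia Y7 peptide in 25 mM HEPES pH 7.4, 10 mM MgCl2, 0.01% Triton X-100, 1 mM DTT, 2% DMSO. Sox fluorescence (ex 360/em 485 nm) read every 50 s for 45 min; IC50 from 4-parameter fit of percent of control.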

For the next assay, the target named is JAK3 (Homo sapiens (Human), UniProt P52333). Nature of the assay: JAK3 Inhibition Assay (Example D, Omnia kinase fluorescence peptide substrate assay). The gist of the method:
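Mixture held 2 nM JAK3, 1 mM ATP and 10 μM Omnia Y7 peptide in 25 mM HEPES pH 7.4, 10 mM MgCl2, 0.01% Triton X-100, 1 mM DTT, 2% DMSO final. Sox fluorescence (ex 360/em 485 nm) was read every 50 s for 45 min. IC50 came from a 4-parameter logistic fit of percent of control.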

[1] abbreviates: JAK1 Enzyme IC50 1 mM ATP, 1 mM ATP, averaged IC50 ranges.

Read-outs that look alike come from different tables or passages of the source.

JAK2, sequence (O60674 whole entry): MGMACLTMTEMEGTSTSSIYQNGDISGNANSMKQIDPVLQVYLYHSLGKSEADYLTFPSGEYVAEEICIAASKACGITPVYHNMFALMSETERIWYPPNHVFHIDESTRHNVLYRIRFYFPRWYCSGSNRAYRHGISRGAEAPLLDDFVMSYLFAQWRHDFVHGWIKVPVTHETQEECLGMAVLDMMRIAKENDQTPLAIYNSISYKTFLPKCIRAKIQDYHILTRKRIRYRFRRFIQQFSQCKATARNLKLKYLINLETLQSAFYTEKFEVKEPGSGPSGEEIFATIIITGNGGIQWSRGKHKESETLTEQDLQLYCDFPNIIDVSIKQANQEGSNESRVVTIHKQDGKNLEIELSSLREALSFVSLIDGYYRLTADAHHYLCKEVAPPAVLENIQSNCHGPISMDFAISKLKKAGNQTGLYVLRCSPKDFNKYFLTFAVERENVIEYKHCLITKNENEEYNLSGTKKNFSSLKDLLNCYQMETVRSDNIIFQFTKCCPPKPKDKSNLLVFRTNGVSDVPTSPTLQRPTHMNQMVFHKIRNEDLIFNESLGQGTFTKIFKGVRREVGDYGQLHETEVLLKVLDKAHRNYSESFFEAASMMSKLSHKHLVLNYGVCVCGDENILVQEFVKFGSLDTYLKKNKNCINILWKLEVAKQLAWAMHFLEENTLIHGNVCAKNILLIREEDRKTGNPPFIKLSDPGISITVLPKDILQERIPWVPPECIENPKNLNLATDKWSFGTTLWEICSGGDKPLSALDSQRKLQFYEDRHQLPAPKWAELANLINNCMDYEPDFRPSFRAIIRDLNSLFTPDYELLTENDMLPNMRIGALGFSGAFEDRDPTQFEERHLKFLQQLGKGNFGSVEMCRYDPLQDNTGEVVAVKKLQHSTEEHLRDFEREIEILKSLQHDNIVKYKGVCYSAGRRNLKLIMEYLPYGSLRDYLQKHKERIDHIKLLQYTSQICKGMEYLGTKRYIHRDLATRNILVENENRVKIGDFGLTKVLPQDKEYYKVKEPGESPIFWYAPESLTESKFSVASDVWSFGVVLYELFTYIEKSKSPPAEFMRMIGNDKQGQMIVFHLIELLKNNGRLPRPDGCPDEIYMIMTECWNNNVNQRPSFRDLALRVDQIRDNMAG
Human Tyk2 kinase domain, sequence (P29597 886-1187): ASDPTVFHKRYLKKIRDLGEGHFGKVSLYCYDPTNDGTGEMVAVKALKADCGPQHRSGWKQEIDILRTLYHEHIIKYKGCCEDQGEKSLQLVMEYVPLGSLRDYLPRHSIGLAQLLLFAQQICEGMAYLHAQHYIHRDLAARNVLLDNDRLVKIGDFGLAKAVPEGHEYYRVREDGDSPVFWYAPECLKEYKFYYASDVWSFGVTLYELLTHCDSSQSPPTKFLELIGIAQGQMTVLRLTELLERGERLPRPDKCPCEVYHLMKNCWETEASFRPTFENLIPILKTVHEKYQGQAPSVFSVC
JAK3, sequence (P52333 whole entry): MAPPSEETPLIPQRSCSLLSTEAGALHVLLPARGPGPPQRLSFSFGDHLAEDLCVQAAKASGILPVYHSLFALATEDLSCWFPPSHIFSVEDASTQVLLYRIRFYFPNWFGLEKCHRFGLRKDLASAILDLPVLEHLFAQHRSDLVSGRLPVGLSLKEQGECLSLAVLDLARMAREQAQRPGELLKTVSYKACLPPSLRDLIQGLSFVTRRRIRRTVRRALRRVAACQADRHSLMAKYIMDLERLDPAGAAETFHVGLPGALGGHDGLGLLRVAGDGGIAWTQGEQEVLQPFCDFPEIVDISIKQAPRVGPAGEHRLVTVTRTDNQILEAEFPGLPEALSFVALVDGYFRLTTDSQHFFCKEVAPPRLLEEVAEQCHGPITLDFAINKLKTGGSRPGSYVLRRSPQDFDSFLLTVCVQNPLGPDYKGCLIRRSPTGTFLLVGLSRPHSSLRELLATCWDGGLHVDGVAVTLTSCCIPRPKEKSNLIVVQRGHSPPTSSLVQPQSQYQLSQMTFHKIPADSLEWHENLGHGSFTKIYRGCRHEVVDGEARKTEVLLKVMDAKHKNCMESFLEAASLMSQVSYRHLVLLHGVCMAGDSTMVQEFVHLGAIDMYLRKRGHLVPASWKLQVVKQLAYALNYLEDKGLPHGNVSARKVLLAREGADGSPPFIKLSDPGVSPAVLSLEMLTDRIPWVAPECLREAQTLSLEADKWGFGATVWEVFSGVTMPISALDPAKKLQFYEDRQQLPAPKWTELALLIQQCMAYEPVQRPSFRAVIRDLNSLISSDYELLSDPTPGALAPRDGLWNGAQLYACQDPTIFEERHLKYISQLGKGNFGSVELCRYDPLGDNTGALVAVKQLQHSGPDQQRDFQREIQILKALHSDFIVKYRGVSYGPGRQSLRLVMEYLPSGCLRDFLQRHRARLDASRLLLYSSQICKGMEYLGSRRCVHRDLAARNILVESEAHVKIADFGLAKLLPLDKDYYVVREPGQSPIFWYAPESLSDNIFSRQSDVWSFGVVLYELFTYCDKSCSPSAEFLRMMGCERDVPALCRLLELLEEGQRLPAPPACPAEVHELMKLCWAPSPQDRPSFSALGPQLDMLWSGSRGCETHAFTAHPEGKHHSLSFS
JAK1, sequence (P23458 whole entry): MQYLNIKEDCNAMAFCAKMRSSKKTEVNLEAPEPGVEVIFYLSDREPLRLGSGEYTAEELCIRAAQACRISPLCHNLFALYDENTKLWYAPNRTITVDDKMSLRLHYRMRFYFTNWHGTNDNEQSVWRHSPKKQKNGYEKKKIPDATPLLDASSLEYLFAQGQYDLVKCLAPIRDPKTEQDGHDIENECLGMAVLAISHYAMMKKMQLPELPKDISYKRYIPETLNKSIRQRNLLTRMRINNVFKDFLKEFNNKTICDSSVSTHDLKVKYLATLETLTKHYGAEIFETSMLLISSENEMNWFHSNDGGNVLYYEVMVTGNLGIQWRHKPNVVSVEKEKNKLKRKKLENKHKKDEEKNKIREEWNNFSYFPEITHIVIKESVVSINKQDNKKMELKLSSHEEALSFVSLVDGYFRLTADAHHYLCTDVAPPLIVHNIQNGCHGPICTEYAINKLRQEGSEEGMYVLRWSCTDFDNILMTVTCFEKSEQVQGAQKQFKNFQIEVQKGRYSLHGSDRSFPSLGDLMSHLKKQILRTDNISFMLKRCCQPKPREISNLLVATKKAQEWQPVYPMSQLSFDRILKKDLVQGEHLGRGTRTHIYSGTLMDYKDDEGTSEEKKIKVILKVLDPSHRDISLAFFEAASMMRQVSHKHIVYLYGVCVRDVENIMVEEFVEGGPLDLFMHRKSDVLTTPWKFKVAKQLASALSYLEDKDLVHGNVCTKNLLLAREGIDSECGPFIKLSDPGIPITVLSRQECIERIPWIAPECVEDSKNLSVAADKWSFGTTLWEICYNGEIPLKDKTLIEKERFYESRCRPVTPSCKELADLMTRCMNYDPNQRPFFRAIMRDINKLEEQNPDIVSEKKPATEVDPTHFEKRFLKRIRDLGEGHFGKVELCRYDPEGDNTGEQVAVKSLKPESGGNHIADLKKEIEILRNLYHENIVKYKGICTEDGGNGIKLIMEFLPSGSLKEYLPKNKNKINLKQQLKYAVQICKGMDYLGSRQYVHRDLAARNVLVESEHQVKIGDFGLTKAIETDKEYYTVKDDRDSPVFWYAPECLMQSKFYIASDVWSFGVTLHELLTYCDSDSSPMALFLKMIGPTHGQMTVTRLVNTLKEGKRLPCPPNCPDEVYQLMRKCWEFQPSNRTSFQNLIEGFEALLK

As for `CCC(CC)n1cc(-c2nc(-c3cnn(C[C@H]4COCCN4)c3)cn3nccc23)cn1` [Example 30, (S)-3-((4-(4-(1-(pentan-3-yl)-1H-pyrazol-4-yl)pyrazolo[1,5-a]pyrazin-6-yl)-1H-pyrazol-1-yl)methyl)morpholine], the IC50 was in the range of 10 to 100 nM against Human Tyk2 kinase domain, 100 to 1000 nM against JAK1, 10 to 100 nM against JAK2 and 1000 to 10000 nM against JAK3.
Regarding `CCC(CC)n1cc(-c2nc(-c3cnn(C4CCN(C(=O)N(C)C)CC4)c3)cn3nccc23)cn1` [Example 35, N,N-dimethyl-4-(4-(4-(1-(pentan-3-yl)-1H-pyrazol-4-yl)pyrazolo[1,5-a]pyrazin-6-yl)-1H-pyrazol-1-yl)piperidine-1-carboxamide], the IC50 on Human Tyk2 kinase domain is 10 to 100 nM; against JAK1, 100 to 1000 nM; on JAK2 it was 10 to 100 nM; on JAK3 it was 1000 to 10000 nM.
Take `CCC(CC)n1cc(-c2nc(-c3cnn(C4CN(C(=O)NC)C4)c3)cn3nccc23)cn1` [Example 39, N-methyl-3-(4-(4-(1-(pentan-3-yl)-1H-pyrazol-4-yl)pyrazolo[1,5-a]pyrazin-6-yl)-1H-pyrazol-1-yl)azetidine-1-carboxamide]: the IC50 against Human Tyk2 kinase domain fell in the range of 10 to 100 nM; at JAK1, 10 to 100 nM; against JAK2, 10 to 100 nM; at JAK3 it was 1000 to 10000 nM.
Consider `CCC(CC)n1cc(-c2nc(-c3cnn(C4CN(C(=O)N(C)C)C4)c3)cn3nccc23)cn1` [Example 40, N,N-dimethyl-3-(4-(4-(1-(pentan-3-yl)-1H-pyrazol-4-yl)pyrazolo[1,5-a]pyrazin-6-yl)-1H-pyrazol-1-yl)azetidine-1-carboxamide], for which the half-maximal inhibitory concentration (IC50) at Human Tyk2 kinase domain was 10 to 100 nM; at JAK1, 100 to 1000 nM; on JAK2 it was 10 to 100 nM; on JAK3, 1000 to 10000 nM.
With `CCC(CC)n1cc(-c2nc(-c3cnn(C4CN(P(=O)(N(C)C)N(C)C)C4)c3)cn3nccc23)cn1` [Example 41, Bis-N,N-dimethyl-P-(3-(4-(4-(1-(pentan-3-yl)-1H-pyrazol-4-yl)pyrazolo[1,5-a]pyrazin-6-yl)-1H-pyrazol-1-yl)azetidin-1-yl)phosphonic amide], the 50% inhibitory concentration (IC50) on Human Tyk2 kinase domain was in the range of 10 to 100 nM; on JAK1 it was 100 to 1000 nM; against JAK2 it was 10 to 100 nM; on JAK3, 1000 to 10000 nM.
Consider `CCC(CC)n1cc(-c2nc(-c3cnn(C4CN(C(=O)C(C)C)C4)c3)cn3nccc23)cn1` [Example 42, 2-methyl-1-(3-(4-(4-(1-(pentan-3-yl)-1H-pyrazol-4-yl)pyrazolo[1,5-a]pyrazin-6-yl)-1H-pyrazol-1-yl)azetidin-1-yl)propan-1-one], for which the IC50 at Human Tyk2 kinase domain was 10 to 100 nM; on JAK1, 1000 to 10000 nM; against JAK2, 10 to 100 nM; against JAK3, 1000 to 10000 nM.
For the compound `CCC(CC)n1cc(-c2nc(-c3cnn(C4CN(C(=O)C5CC5)C4)c3)cn3nccc23)cn1` [Example 43, cyclopropyl(3-(4-(4-(1-(pentan-3-yl)-1H-pyrazol-4-yl)pyrazolo[1,5-a]pyrazin-6-yl)-1H-pyrazol-1-yl)azetidin-l-yl)methanone], the IC50 at Human Tyk2 kinase domain fell in the range of 10 to 100 nM; at JAK1 it was 1000 to 10000 nM; against JAK2 it was 10 to 100 nM; at JAK3, 1000 to 10000 nM.
In the case of `CCC(C(=O)O)n1cc(-c2nc(-c3cnn(C)c3)cn3nccc23)cn1` (stereo not drawn) [Example 44, 2-(4-(6-(1-methyl-1H-pyrazol-4-yl)pyrazolo[1,5-a]pyrazin-4-yl)-1H-pyrazol-1-yl)butanoic acid], the concentration for half-maximal inhibition (IC50) was in the range of 10 to 100 nM against Human Tyk2 kinase domain, 1000 to 10000 nM on JAK1 (setting [1]), 1000 to 10000 nM at JAK2 and 1000 to 10000 nM against JAK3.
`CCC(CO)n1cc(-c2nc(-c3cnn(C)c3)cn3nccc23)cn1` (stereo not drawn) [Example 45, 2-(4-(6-(1-methyl-1H-pyrazol-4-yl)pyrazolo[1,5-a]pyrazin-4-yl)-1H-pyrazol-1-yl)butan-1-ol]: the half-maximal inhibitory concentration (IC50) at Human Tyk2 kinase domain, against JAK1, on JAK2 and against JAK3 was 1000 to 10000 nM in each case.
For the compound `CCC(CCO)n1cc(-c2nc(-c3cnn(C)c3)cn3nccc23)cn1` (stereo not drawn) [Example 47, 3-(4-(6-(1-methyl-1H-pyrazol-4-yl)pyrazolo[1,5-a]pyrazin-4-yl)-1H-pyrazol-1-yl)pentan-1-ol], the IC50 at Human Tyk2 kinase domain, against JAK1, against JAK2 and against JAK3 was 1000 to 10000 nM in each case.
In the case of `Cn1cc(-c2cn3nccc3c(-c3cnn(C4(C)CCCC4)c3)n2)cn1` [Example 49, 6-(1-methyl-1H-pyrazol-4-yl)-4-(1-(1-methylcyclopentyl)-1H-pyrazol-4-yl)pyrazolo[1,5-a]pyrazine], the IC50 was in the range of 100 to 1000 nM on Human Tyk2 kinase domain, 1000 to 10000 nM against JAK1, 1000 to 10000 nM on JAK2 and 1000 to 10000 nM against JAK3.
With `Cn1cc(-c2cn3nccc3c(-c3cnn(C4CCCC4CO)c3)n2)cn1` (stereo not drawn) [Example 51, (2-(4-(6-(1-methyl-1H-pyrazol-4-yl)pyrazolo[1,5-a]pyrazin-4-yl)-1H-pyrazol-1-yl)cyclopentyl)methanol], the concentration for half-maximal inhibition (IC50) is 100 to 1000 nM at Human Tyk2 kinase domain, 1000 to 10000 nM against JAK1, 1000 to 10000 nM at JAK2 and 1000 to 10000 nM on JAK3.
Turning to `CC1CCCCCC1n1cc(-c2nc(-c3cnn(C)c3)cn3nccc23)cn1` (stereo not drawn) [Example 52, 6-(1-methyl-1H-pyrazol-4-yl)-4-(1-(2-methylcycloheptyl)-1H-pyrazol-4-yl)pyrazolo[1,5-a]pyrazine], the IC50 against Human Tyk2 kinase domain lay in the range of 10 to 100 nM; at JAK1, 100 to 1000 nM; at JAK2 it was 10 to 100 nM; on JAK3, 1000 to 10000 nM.
For the compound `Cn1cc(-c2cn3nccc3c(-c3cnn(C4CCCC4O)c3)n2)cn1` (stereo not drawn) [Example 53, 2-(4-(6-(1-methyl-1H-pyrazol-4-yl)pyrazolo[1,5-a]pyrazin-4-yl)-1H-pyrazol-1-yl)cyclopentanol], the 50% inhibitory concentration (IC50) is 100 to 1000 nM on Human Tyk2 kinase domain, 1000 to 10000 nM on JAK1, 100 to 1000 nM at JAK2 and 1000 to 10000 nM on JAK3.
Turning to `CCC(CC)n1cc(-c2nc(-c3cnn(C[C@@H](O)CO)c3)cn3nccc23)cn1` [Example 54, (R)-3-(4-(4-(1-(pentan-3-yl)-1H-pyrazol-4-yl)pyrazolo[1,5-a]pyrazin-6-yl)-1H-pyrazol-1-yl)propane-1,2-diol], the IC50 at Human Tyk2 kinase domain lay within 10 to 100 nM; against JAK1 (setting [1]), 100 to 1000 nM; against JAK2, 10 to 100 nM; against JAK3, 1000 to 10000 nM.
Turning to `CCC(CC)n1cc(-c2nc(-c3cnn(C[C@H](O)CO)c3)cn3nccc23)cn1` [Example 55, (S)-3-(4-(4-(1-(pentan-3-yl)-1H-pyrazol-4-yl)pyrazolor[1,5-a]pyrazin-6-yl)-1H-pyrazol-1-yl)propane-1,2-diol], the half-maximal inhibitory concentration (IC50) at Human Tyk2 kinase domain lay in the range of 10 to 100 nM; against JAK1 (setting [1]), 100 to 1000 nM; against JAK2 it was 100 to 1000 nM; against JAK3, 1000 to 10000 nM.
On to `CCC(CC)n1cc(-c2nc(-c3cnn(C[C@H](O)C(C)(C)O)c3)cn3nccc23)cn1` [Example 56, (S)-3-methyl-1-(4-(4-(1-(pentan-3-yl)-1H-pyrazol-4-yl)pyrazolo[1,5-a]pyrazin-6-yl)-1H-pyrazol-1-yl)butane-2,3-diol], for which the IC50 against Human Tyk2 kinase domain is 10 to 100 nM; at JAK1, 1000 to 10000 nM; against JAK2, 10 to 100 nM; against JAK3, 1000 to 10000 nM.
For the compound `CCC(CC)n1cc(-c2nc(-c3cnn(C[C@@H](O)C(C)(C)O)c3)cn3nccc23)cn1` [Example 57, (R)-3-methyl-1-(4-(4-(1-(pentan-3-yl)-1H-pyrazol-4-yl)pyrazolo[1,5-a]pyrazin-6-yl)-1H-pyrazol-1-yl)butane-2,3-diol], the IC50 against Human Tyk2 kinase domain lay in the range of 10 to 100 nM; against JAK1, 100 to 1000 nM; at JAK2 it was 10 to 100 nM; on JAK3, 1000 to 10000 nM.
Turning to `CCC(CC)n1cc(-c2nc(-c3cnn(CC(O)CO)c3)cn3nccc23)cn1` (stereo not drawn) [Example 58, 3-(4-(4-(1-(pentan-3-yl)-1H-pyrazol-4-yl)pyrazolo[1,5-a]pyrazin-6-yl)-1H-pyrazol-1-yl)propane-1,2-diol], the IC50 against Human Tyk2 kinase domain was in the range of 10 to 100 nM; against JAK1 (setting [1]) it was 100 to 1000 nM; against JAK2, 10 to 100 nM; against JAK3, 1000 to 10000 nM.
In the case of `CCC(CC)n1cc(-c2nc(-c3cnn(C[C@@H](O)[C@@H](C)O)c3)cn3nccc23)cn1` [Example 59, (2R,3R)-1-(4-(4-(1-(pentan-3-yl)-1H-pyrazol-4-yl)pyrazolo[1,5-a]pyrazin-6-yl)-1H-pyrazol-l-yl)butane-2,3-diol], the IC50 is 10 to 100 nM against Human Tyk2 kinase domain, 100 to 1000 nM against JAK1 (setting [1]), 10 to 100 nM against JAK2 and 1000 to 10000 nM against JAK3.
For `CCC(CC)n1cc(-c2nc(-c3cnn(CC(C)(O)CO)c3)cn3nccc23)cn1` (stereo not drawn) [Example 60, 2-methyl-3-(4-(4-(1-(pentan-3-yl)-1H-pyrazol-4-yl)pyrazolo[1,5-a]pyrazin-6-yl)-1H-pyrazol-1-yl)propane-1,2-diol], the half-inhibitory concentration (IC50) on Human Tyk2 kinase domain is 10 to 100 nM; against JAK1 it was 1000 to 10000 nM; against JAK2 it was 10 to 100 nM; against JAK3 it was 1000 to 10000 nM.
